Assay results as given in patent US20120214862A1, “MODULATION OF FACTOR 7 EXPRESSION” (ISIS Pharmaceuticals, Inc., priority 2009, published 2012).
In the oligonucleotide strings, read from the 5' end, every base follows the letter of its sugar. An asterisk marks phosphorothioate; unmarked linkages are phosphodiester. Other units and linkages are bracketed, terminal groups are in braces. A string of capitals states the bases alone. e = 2'-O-(2-methoxyethyl) (MOE); [5mC] = 5-methylcytosine; d = 2'-deoxy (DNA)

System: human Factor 7 mRNA
Experiment: Antisense inhibition of human Factor 7 mRNA in HepB3 cells, lipofectin, 50 nM, real-time RT-PCR
Assay type: cell-based
Conditions: for % Inhibition (human Factor 7 mRNA): 50 nM, ~24 h
Protocol: Antisense oligonucleotides targeted to a Factor 7 nucleic acid were tested for their effects on Factor 7 mRNA in vitro. Cultured HepB3 cells at a density of 4,000 cells per well were transfected using lipofectin reagent with 50 nM antisense oligonucleotide. After a treatment period of approximately 24 hours, RNA was isolated from the cells and Factor 7 mRNA levels were measured by real-time RT-PCR, as described herein. Factor 7 mRNA levels were adjusted according to total RNA content as measured by RIBOGREEN®. Results are presented as percent inhibition of Factor 7, relative to untreated control cells.
(§1) Antisense oligonucleotides targeted to a Factor 7 nucleic acid were designed and tested for their effects on Factor 7 mRNA in vitro. Certain antisense oligonucleotides from Table 3 were also retested for their effects on Factor 7 mRNA in vitro. Cultured HepB3 cells at a density of 4,000 cells per well were transfected using lipofectin reagent with 50 nM antisense oligonucleotide. After a treatment period of approximately 24 hours, RNA was isolated from the cells and Factor 7 mRNA levels were measured by real-time RT-PCR, as described herein. Human Factor 7 primer probe set RTS 2927 was used to measure mRNA levels. Factor 7 mRNA levels were adjusted according to total RNA content as measured by RIBOGREEN®. Results are presented as percent inhibition of Factor 7, relative to untreated control.
as §1, with “tested” for “tested for their effects on Factor 7 mRNA in vitro. Certain antisense oligonucleotides from Table 3 were also retested”
These gapmers were designed by creating gapmers shifted slightly upstream and downstream (i.e. “microwalk”) of the original gapmers from Table 7. Gapmers were also created with various motifs, e.g. 5-10-5 MOE, 3-14-3 MOE, and 2-13-5 MOE. These gapmers were tested in vitro. Cultured HepB3 cells at a density of 4,000 cells per well were transfected using lipofectin reagent with 50 nM antisense oligonucleotide. After a treatment period of approximately 24 hours, RNA was isolated from the cells and Factor 7 mRNA levels were measured by real-time RT-PCR. Factor 7 mRNA levels were adjusted according to total RNA content, as measured by RIBOGREEN®. Results are presented as percent inhibition of Factor 7, relative to untreated control cells.

[1] = HepB3 cells, lipofectin, 50 nM antisense oligonucleotide, approximately 24 hours, primer probe set RTS 2927, relative to untreated control
[2] = Example 1, HepB3 cells, lipofectin, relative to untreated control cells
[3] = HepB3 cells, gapmers targeted to nucleobases 11830 to 11869 of SEQ ID NO: 1 (Table 9)
[4] = Example 6 microwalk, nucleobases 15098 to 15122 of SEQ ID NO: 1, HepB3, lipofectin
[5] = Example 4, HepB3 cells, lipofectin, relative to untreated control
[6] = HepB3 cells, gapmers (5-10-5, 3-14-3, 2-13-5 MOE) targeted to nucleobases 4868 to 4899 of SEQ ID NO: 1
[7] = HepB3 cells, gapmers targeted to nucleobases 14707 to 14732 of SEQ ID NO: 1 (Table 11)

Substance	% Inhibition of human Factor 7 mRNA levels [1]	% Inhibition (human Factor 7 mRNA) [2]	further results
422185 (antisense e[5mC]*eT*eG*d[5mC]*dG*d[5mC]*d[5mC]*dA*d[5mC]*d[5mC]*d[5mC]*dG*d[5mC]*d[5mC]*dG*dG*d[5mC]*eT*e[5mC]*eT) [compound 422185]			% Inhibition of human Factor 7 mRNA levels (HepB3 cells, gapmers targeted to nucleobases 13760 to 13789 of SEQ ID NO: 1 (Table 10)): 48%
416518 (antisense eG*eG*eG*eT*eG*dA*d[5mC]*d[5mC]*dA*d[5mC]*dA*d[5mC]*dA*dT*dT*eT*e[5mC]*e[5mC]*eT*eG) [compound 416518]	55%		
407902 (antisense e[5mC]*eA*e[5mC]*e[5mC]*e[5mC]*dA*dG*dA*dT*dG*dG*dT*dG*dT*dT*eG*eA*eT*e[5mC]*eA) [compound 407902]		86%	
416441 (antisense eA*eG*eA*eT*eA*dT*dA*dG*dG*dA*d[5mC]*dT*dG*dG*dA*eG*e[5mC]*eT*eG*eG) [compound 416441]	32%		
416471 (antisense eT*eG*eA*eG*e[5mC]*dT*dT*dT*dT*dG*d[5mC]*dA*dG*d[5mC]*d[5mC]*eA*e[5mC]*eT*e[5mC]*eG) [compound 416471]	62%		
407620 (antisense eA*eG*eG*eA*e[5mC]*d[5mC]*dT*dG*d[5mC]*d[5mC]*dA*dT*dG*dG*dA*e[5mC]*eA*e[5mC]*eT*e[5mC]) [compound 407620]		79%	
407617 (antisense eT*e[5mC]*e[5mC]*eA*e[5mC]*dA*dT*dG*dG*dA*dT*dA*dT*dT*d[5mC]*eA*eA*e[5mC]*eT*eG) [compound 407617]		67%	
422159 (antisense eA*eA*eT*dG*dG*dT*d[5mC]*dA*dG*dG*dG*d[5mC]*dT*dG*dG*dT*dT*eT*eT*eG) [compound 422159]			% Inhibition of human Factor 7 mRNA levels [3]: 45%
407893 (antisense eT*e[5mC]*eG*eA*eA*dG*dG*d[5mC]*dA*dG*dG*dG*dA*dG*dG*e[5mC]*eA*eG*eA*eA) [compound 407893]		33%	
407942 (antisense e[5mC]*eA*e[5mC]*eA*eG*dG*dT*dG*dT*dG*d[5mC]*dG*dG*dA*dG*eG*eA*eG*eA*e[5mC]) [compound 407942]		41%	
407904 (antisense eG*eA*eA*eA*e[5mC]*dA*dG*dT*dG*dG*dG*d[5mC]*d[5mC]*dG*d[5mC]*eG*eG*eA*eG*eA) [compound 407904]		83%	
422210 (antisense e[5mC]*eA*eG*d[5mC]*dA*d[5mC]*dA*d[5mC]*dA*dT*dG*dG*dA*dG*dT*d[5mC]*dA*eG*e[5mC]*eA) [compound 422210]			% Inhibition (human Factor 7 mRNA) [4]: 25%
416458 (antisense eG*eG*e[5mC]*eG*eG*dA*dG*d[5mC]*dA*dG*d[5mC]*dG*d[5mC]*dG*dA*eT*eG*eT*e[5mC]*eG) [compound 416458]	29%		
416434 (antisense e[5mC]*eT*eG*eT*eA*dA*dG*dA*dA*dA*dT*d[5mC]*d[5mC]*dA*dG*eA*eA*e[5mC]*eA*eG) [compound 416434]	0%		
416422 (antisense eA*eG*e[5mC]*eG*eA*d[5mC]*d[5mC]*d[5mC]*d[5mC]*dG*d[5mC]*d[5mC]*dT*dG*d[5mC]*eA*eG*e[5mC]*e[5mC]*eA) [compound 416422]	8%		
422129 (antisense eG*eT*eT*eA*e[5mC]*dT*dG*dA*dG*d[5mC]*dG*d[5mC]*dG*dG*dA*eA*eG*eA*eA*eG) [compound 422129]			% Inhibition (human Factor 7 mRNA) [5]: 45%
407645 (antisense eG*eA*eG*eA*eG*d[5mC]*dT*dA*dA*dA*d[5mC]*dA*dA*d[5mC]*d[5mC]*eG*e[5mC]*e[5mC]*eT*eT) [compound 407645]		65%	
422251 (antisense eG*e[5mC]*dT*dG*dG*d[5mC]*dT*dG*dA*dG*dG*dA*dG*dA*d[5mC]*eA*eA*eT*eG*eG) [compound 422251]			% Inhibition of human Factor 7 mRNA levels [3]: 36%

Substance	% Inhibition of human Factor 7 mRNA levels [1]	% Inhibition (human Factor 7 mRNA) [2]	further results
407952 (antisense eG*eG*eA*eT*e[5mC]*d[5mC]*dT*dG*dG*dG*dA*dG*d[5mC]*dT*dA*e[5mC]*eA*eG*e[5mC]*e[5mC]) [compound 407952]		41%	
422208 (antisense eG*e[5mC]*eA*d[5mC]*dA*d[5mC]*dA*dT*dG*dG*dA*dG*dT*d[5mC]*dA*dG*d[5mC]*eA*eT*e[5mC]) [compound 422208]			% Inhibition (human Factor 7 mRNA) [4]: 56%
407647 (antisense eG*e[5mC]*eA*eG*e[5mC]*d[5mC]*dG*dT*dT*dT*dA*dT*dT*dG*dT*eG*eA*eA*eG*e[5mC]) [compound 407647]		83%	
416431 (antisense eA*eG*eG*eG*eA*dG*d[5mC]*d[5mC]*d[5mC]*dG*dG*d[5mC]*d[5mC]*dG*d[5mC]*eA*eG*e[5mC]*eT*e[5mC]) [compound 416431]	25%		
422275 (antisense eG*eT*dT*dA*d[5mC]*dT*dG*dA*dG*d[5mC]*dG*d[5mC]*dG*dG*dA*eA*eG*eA*eA*eG) [compound 422275]			% Inhibition (human Factor 7 mRNA) [5]: 42%
416559 (antisense eG*e[5mC]*e[5mC]*eA*eT*dT*dT*d[5mC]*dT*dA*dG*dG*dT*d[5mC]*dT*eG*e[5mC]*eA*eG*eG) [compound 416559]	25%		
422138 (antisense eT*e[5mC]*eT*eG*e[5mC]*dA*dG*dG*dA*dG*d[5mC]*dG*dG*d[5mC]*d[5mC]*eT*eA*eA*eA*eT) [compound 422138]			% Inhibition of human Factor 7 mRNA levels [6]: 70%
422222 (antisense eA*eG*e[5mC]*d[5mC]*d[5mC]*dG*dA*dG*dT*dT*d[5mC]*dT*dG*d[5mC]*dA*dG*dG*eA*eG*e[5mC]) [compound 422222]			% Inhibition of human Factor 7 mRNA levels [6]: 55%
422202 (antisense eA*eG*e[5mC]*d[5mC]*dT*dG*dA*dG*dG*d[5mC]*d[5mC]*dA*dG*d[5mC]*dA*dG*dA*eT*e[5mC]*eA) [compound 422202]			% Inhibition of human Factor 7 mRNA levels [7]: 49%
407626 (antisense eT*e[5mC]*eT*eT*eG*dA*dT*dT*dT*dT*dG*dT*d[5mC]*dG*dA*eA*eA*e[5mC]*eA*eG) [compound 407626]		82%	
407958 (antisense eG*e[5mC]*e[5mC]*eG*eT*dG*d[5mC]*dT*dT*dG*d[5mC]*d[5mC]*dG*dG*dA*eG*eT*e[5mC]*eT*eG) [compound 407958]		58%	
407950 (antisense eA*eG*e[5mC]*eT*eT*d[5mC]*d[5mC]*dA*dT*dG*dT*dG*dA*dG*dG*eG*eT*eT*e[5mC]*eA) [compound 407950]		58%	
416537 (antisense eT*eG*eA*e[5mC]*e[5mC]*dA*d[5mC]*dT*d[5mC]*dT*dT*d[5mC]*d[5mC]*dG*dA*eG*e[5mC]*eA*eG*e[5mC]) [compound 416537]	55%		
416527 (antisense eG*eA*eG*e[5mC]*eT*dT*d[5mC]*d[5mC]*d[5mC]*dA*dA*dG*dT*dT*dG*eG*e[5mC]*eA*eG*eT) [compound 416527]	49%		
422238 (antisense eA*e[5mC]*dA*dA*dT*dG*dG*dT*d[5mC]*dA*dG*dG*dG*d[5mC]*dT*eG*eG*eT*eT*eT) [compound 422238]			% Inhibition of human Factor 7 mRNA levels [3]: 64%
407954 (antisense e[5mC]*eA*eG*eG*eG*dA*dG*dA*dG*dA*dA*d[5mC]*dA*dT*d[5mC]*e[5mC]*eA*eA*eT*eT) [compound 407954]		39%	
416439 (antisense eG*eT*e[5mC]*e[5mC]*eT*dT*dG*d[5mC]*dA*dG*dG*dA*dG*d[5mC]*d[5mC]*e[5mC]*e[5mC]*e[5mC]*eA*eT) [compound 416439]	56%		
422131 (antisense eA*eG*e[5mC]*e[5mC]*eT*dG*dA*dG*dG*d[5mC]*d[5mC]*dA*dG*d[5mC]*dA*eG*eA*eT*e[5mC]*eA) [compound 422131]			% Inhibition of human Factor 7 mRNA levels [7]: 68%
